Reference: patent publication US20100267561A1, “HERBICIDAL PYRIDAZINONE DERIVATIVES” (priority 2007, published 2010)

Key:
Format in all cases: in vivo
[1] = system: downy bromegrass (Bromus tectorum); test: Test C pre-/postemergence plant response
Procedure, shortened: (§1)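 Formulated in a surfactant-containing non-phytotoxic solvent, compounds were tested under controlled growth conditions as preemergence and postemergence treatments. Ratings from 0 (no effect) to 100 (complete control) were assigned visually relative to controls 15 to 25 days later.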

[2] = system: Italian ryegrass (Lolium multiflorum); test: Test C pre-/postemergence plant response
Procedure, shortened: as §1

[3] = system: spring barley (Hordeum vulgare); test: Test C pre-/postemergence plant response
Procedure, shortened: as §1

[4] = system: winter barley (Hordeum vulgare); test: Test C pre-/postemergence plant response
Procedure, shortened: as §1

[5] = system: green foxtail (Setaria viridis); test: Test C pre-/postemergence plant response
Procedure, shortened: as §1

[6] = system: winter wheat (Triticum aestivum); test: Test C pre-/postemergence plant response
Procedure, shortened: as §1

[7] = system: wild mustard (Sinapis arvensis); test: Test C pre-/postemergence plant response
Procedure, shortened: as §1

[8] = system: pigweed (Amaranthus retroflexus); test: Test C pre-/postemergence plant response
Procedure, shortened: as §1

[9] = system: spring wheat (Triticum aestivum); test: Test C pre-/postemergence plant response
Procedure, shortened: as §1

[10] = system: blackgrass (Alopecurus myosuroides); test: Test C pre-/postemergence plant response
Procedure, shortened: as §1

[11] = system: Russian thistle (Salsola iberica); test: Test B pre-/postemergence plant response; details: Preemergence
Procedure, shortened: (§2)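 Visual scoring from 0 (no effect) to 100 (complete control) against untreated controls was done 13 to 15 days after greenhouse treatment. Chemicals were formulated in a surfactant-containing non-phytotoxic solvent and applied to soil preemergence or to 1- to 4-leaf (2-18 cm) plants postemergence.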

[12] = system: large crabgrass (Digitaria sanguinalis); test: Test B pre-/postemergence plant response; details: for Crabgrass, Large plant response rating: 8 g ai/ha
Procedure, shortened: as §2

[13] = system: cocklebur (Xanthium strumarium); test: Test B pre-/postemergence plant response; details: for Cocklebur plant response rating: 8 g ai/ha
Procedure, shortened: as §2

[14] = Postemergence, 8 g ai/ha, scale 0 to 100, 0 no effect, 100 complete control
[15] = Postemergence, 16 g ai/ha, scale 0 to 100, 0 no effect, 100 complete control
[16] = Postemergence, 31 g ai/ha, scale 0 to 100, 0 no effect, 100 complete control
[17] = Postemergence, 62 g ai/ha, scale 0 to 100, 0 no effect, 100 complete control
[18] = Preemergence, 8 g ai/ha, scale 0 to 100 (0 no effect, 100 complete control)
[19] = Preemergence, 16 g ai/ha, scale 0 to 100 (0 no effect, 100 complete control)
[20] = Preemergence, 31 g ai/ha, scale 0 to 100 (0 no effect, 100 complete control)
[21] = Preemergence, 62 g ai/ha, scale 0 to 100, 0 no effect, 100 complete control
[22] = Postemergence, 16 g ai/ha, scale 0 to 100
[23] = Preemergence, 31 g ai/ha, 0 to 100 scale, 0 no effect, 100 complete control
[24] = Preemergence, 62 g ai/ha, scale 0 to 100

In the case of CCCc1cc(-c2ccc(Cl)cc2)nn1-c1c(O)cnn(C)c1=O [Compound 43], the “Plant response rating, Bromegrass, Downy” value [1, 14] is reported as 0, the “Plant response rating, Bromegrass, Downy” value [1, 15] is reported as 0 and the “Plant response rating, Bromegrass, Downy” value [1, 16] is reported as 0. For the same molecule, the “Plant response rating, Bromegrass, Downy” value [1, 17] was 75, the “Plant response rating, Bromegrass, Downy” value [1, 18] was 10 and the “Plant response rating, Bromegrass, Downy” value [1, 19] was 25. For the same molecule, the “Plant response rating, Bromegrass, Downy” value [1, 20] was 40, the “Plant response rating, Bromegrass, Downy” value [1, 21] was 75 and the “Plant response rating, Ryegrass, Italian” value [2, 14] was 75. The “Plant response rating, Ryegrass, Italian” value [2, 15] was 98, the “Plant response rating, Ryegrass, Italian” value [2, 16] was 100 and the “Plant response rating, Ryegrass, Italian” value [2, 17] was 100. The “Plant response rating, Ryegrass, Italian” value [2, 18] was 60, the “Plant response rating, Ryegrass, Italian” value [2, 19] was 98 and the “Plant response rating, Ryegrass, Italian” value [2, 20] was 98. For the same molecule, the “Plant response rating, Ryegrass, Italian” value [2, 21] was 98, the “Plant response rating, Barley, Spring” value [3, 14] was 20 and the “Plant response rating, Barley, Spring” value [3, 15] was 35. The “Plant response rating, Barley, Spring” value [3, 16] was 50, the “Plant response rating, Barley, Spring” value [3, 17] was 90 and the “Plant response rating, Barley, Spring” value [3, 18] was 0. For the same molecule, the “Plant response rating, Barley, Spring” value [3, 19] was 20, the “Plant response rating, Barley, Spring” value [3, 20] was 35 and the “Plant response rating, Barley, Spring” value [3, 21] was 60. The “Plant response rating, Barley, Winter” value [4, 14] was 5, the “Plant response rating, Barley, Winter” value [4, 15] was 15 and the “Plant response rating, Barley, Winter” value [4, 16] was 40. For the same molecule, the “Plant response rating, Barley, Winter” value [4, 17] was 80, the “Plant response rating, Barley, Winter” value [4, 18] was 0 and the “Plant response rating, Barley, Winter” value [4, 19] was 20. The “Plant response rating, Barley, Winter” value [4, 20] was 50, the “Plant response rating, Barley, Winter” value [4, 21] was 65 and the “Plant response rating, Foxtail, Green” value [5, 14] was 90. For the same molecule, the “Plant response rating, Foxtail, Green” value [5, 15] was 95, the “Plant response rating, Foxtail, Green” value [5, 16] was 98 and the “Plant response rating, Foxtail, Green” value [5, 17] was 98. For the same molecule, the “Plant response rating, Foxtail, Green” value [5, 18] was 75, the “Plant response rating, Foxtail, Green” value [5, 19] was 100 and the “Plant response rating, Foxtail, Green” value [5, 20] was 100. For the same molecule, the “Plant response rating, Foxtail, Green” value [5, 21] was 100, the “Plant response rating, Wheat, Winter” value [6, 14] was 5 and the “Plant response rating, Wheat, Winter” value [6, 15] was 25. The “Plant response rating, Wheat, Winter” value [6, 16] was 40, the “Plant response rating, Wheat, Winter” value [6, 17] was 65 and the “Plant response rating, Wheat, Winter” value [6, 18] was 0. The “Plant response rating, Wheat, Winter” value [6, 19] was 0, the “Plant response rating, Wheat, Winter” value [6, 20] was 20 and the “Plant response rating, Wheat, Winter” value [6, 21] was 70. For the same molecule, the “Plant response rating, Mustard, Wild” value [7, 14] was 0, the “Plant response rating, Mustard, Wild” value [7, 15] was 0 and the “Plant response rating, Mustard, Wild” value [7, 16] was 0. For the same molecule, the “Plant response rating, Mustard, Wild” value [7, 17] was 25, the “Plant response rating, Mustard, Wild” value [7, 18] was 0 and the “Plant response rating, Mustard, Wild” value [7, 19] was 0. For the same molecule, the “Plant response rating, Mustard, Wild” value [7, 20] was 0, the “Plant response rating, Mustard, Wild” value [7, 21] was 0 and the “Plant response rating, Pigweed” value [8, 14] was 0. For the same molecule, the “Plant response rating, Pigweed” value [8, 15] was 0, the “Plant response rating, Pigweed” value [8, 16] was 0 and the “Plant response rating, Pigweed” value [8, 17] was 0. For the same molecule, the “Plant response rating, Pigweed” value [8, 18] was 0, the “Plant response rating, Pigweed” value [8, 19] was 0 and the “Plant response rating, Pigweed” value [8, 20] was 0. The “Plant response rating, Pigweed” value [8, 21] was 20, the “Plant response rating, Wheat, Spring” value [9, 14] was 0 and the “Plant response rating, Wheat, Spring” value [9, 15] was 15. For the same molecule, the “Plant response rating, Wheat, Spring” value [9, 16] was 60, the “Plant response rating, Wheat, Spring” value [9, 17] was 90 and the “Plant response rating, Wheat, Spring” value [9, 18] was 0. The “Plant response rating, Wheat, Spring” value [9, 19] was 0, the “Plant response rating, Wheat, Spring” value [9, 20] was 30 and the “Plant response rating, Wheat, Spring” value [9, 21] was 65. For the same molecule, the “Plant response rating, Blackgrass” value [10, 14] was 90, the “Plant response rating, Blackgrass” value [10, 15] was 98 and the “Plant response rating, Blackgrass” value [10, 16] was 100. For the same molecule, the “Plant response rating, Blackgrass” value [10, 17] was 100, the “Plant response rating, Blackgrass” value [10, 18] was 85 and the “Plant response rating, Blackgrass” value [10, 19] was 90. The “Plant response rating, Blackgrass” value [10, 20] was 98, the “Plant response rating, Blackgrass” value [10, 21] was 100 and the “Plant response rating, Russian Thistle” value ([11]; 16 g ai/ha, scale 0 to 100 (0 no effect, 100 complete control)) was 0. For the same molecule, the “Plant response rating, Russian Thistle” value ([11]; 31 g ai/ha, scale 0 to 100 (0 no effect, 100 complete control)) was 0, the “Plant response rating, Russian Thistle” value ([11]; 62 g ai/ha, scale 0 to 100) was 0 and the “Russian Thistle plant response rating” value ([11]; 8 g ai/ha, scale 0 to 100) was 0. For the same molecule, the “Crabgrass, Large plant response rating” value ([12]; postemergence, 0-100 scale) was 65, the “Plant response rating, Crabgrass, Large” value [12, 22] was 70 and the “Plant response rating, Crabgrass, Large” value [12, 16] was 75. For the same molecule, the “Plant response rating, Crabgrass, Large” value [12, 17] was 85, the “Plant response rating, Crabgrass, Large” value [12, 19] was 65 and the “Plant response rating, Crabgrass, Large” value [12, 23] was 98. The “Plant response rating, Crabgrass, Large” value [12, 24] was 100, the “Crabgrass, Large plant response rating” value ([12]; Preemergence, scale 0 to 100) was 15 and the “Cocklebur plant response rating” value ([13]; postemergence, 0-100 scale) was 0. For the same molecule, the “Plant response rating, Cocklebur” value [13, 22] was 0, the “Plant response rating, Cocklebur” value [13, 16] was 0 and the “Plant response rating, Cocklebur” value [13, 17] was 0. The “Plant response rating, Cocklebur” value [13, 19] was 0, the “Plant response rating, Cocklebur” value [13, 23] was 0 and the “Plant response rating, Cocklebur” value [13, 24] was 0. The “Cocklebur plant response rating” value ([13]; Preemergence, scale 0 to 100) was 0.
